# Assay results published in ChEMBL document CHEMBL1142079, “Quinoline derivative MC1626, a putative GCN5 histone acetyltransferase (HAT) inhibitor, exhibits HAT-independent activity against Toxoplasma gondii” (2007).
# Active and inactive are the calls of the source. The calls are words filed in the database; no cut-off is given here.
# Tests used:
# Toxoplasma gondii [1] = experiment: Inhibition of Toxoplasma gondii in human foreskin fibroblasts relative to DMSO; format: functional, organism-based
# Toxoplasma gondii [2] = experiment: Inhibition of Toxoplasma gondii in human foreskin fibroblasts at 100 uM relative to DMSO; format: functional
# Toxoplasma gondii [3] = experiment: Decrease in acetylated histone H3 levels in Toxoplasma gondii tachyzoites after 3 days by immunoblotting; format: functional, organism-based
# [4] = molecular target: Histone acetyltransferase GCN5 (Saccharomyces cerevisiae S288c) (UniProt Q03330); experiment: Inhibition of Saccharomyces cerevisiae recombinant GCN5 assessed as histone H3 acetylation
# Toxoplasma gondii [5] = experiment: Effect on apicoplasts in Toxoplasma gondii at 200 uM by DAPI staining relative to DMSO; format: functional
# Chain of Histone acetyltransferase GCN5 (Saccharomyces cerevisiae S288c) (Q03330 whole entry): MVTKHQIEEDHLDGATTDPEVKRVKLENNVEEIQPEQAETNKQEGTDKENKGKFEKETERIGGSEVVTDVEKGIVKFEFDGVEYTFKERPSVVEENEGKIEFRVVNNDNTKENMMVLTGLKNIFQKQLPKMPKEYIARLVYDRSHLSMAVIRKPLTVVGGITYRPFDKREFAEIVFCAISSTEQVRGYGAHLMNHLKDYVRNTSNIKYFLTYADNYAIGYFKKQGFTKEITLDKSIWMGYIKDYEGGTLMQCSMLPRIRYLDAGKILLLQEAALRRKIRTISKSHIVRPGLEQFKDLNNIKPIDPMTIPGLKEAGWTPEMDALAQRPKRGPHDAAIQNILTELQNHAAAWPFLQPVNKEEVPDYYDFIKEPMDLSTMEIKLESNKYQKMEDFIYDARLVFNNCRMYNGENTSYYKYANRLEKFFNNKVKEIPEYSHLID
Activity [4],SMILES,Activity (Toxoplasma gondii [1]),inhibition at 100 µM (Toxoplasma gondii [2]),Activity (Toxoplasma gondii [3]),Activity (Toxoplasma gondii [5])
inactive,CCOC(=O)c1cc2ccccc2nc1C,Dose-dependent effect,50%,inactive,52%
Active,C=CC/C=C\C/C=C\CCCCCCCc1cccc(O)c1C(=O)O,–,–,–,–
